Experimental data published in article PMC8397403, “Physiologically Based Pharmacokinetic Modeling of Transporter-Mediated Hepatic Disposition of Imaging Biomarker Gadoxetate in Rats” (Molecular Pharmaceutics, 2021).
Read-outs that look alike come from different tables or passages of the source.

Tested on: plated rat hepatocytes
Assay: In vitro uptake kinetics of gadoxetate in plated rat hepatocytes (mechanistic hepatocyte model)
Format: in vitro ADME
Details: for % passive: CLpassive,u/(CLactive,u + CLpassive,u); for CLactive,u: Vmax/Km,u; for Km: read-out: Km,u
Procedure: Male adult Sprague-Dawley rats (Charles River, Margate, Kent, UK) were housed in groups of two in individually ventilated cages with free access to food (Chow rat and mouse diet) and fresh drinking water. The designated rat housing facility maintained a controlled temperature (20 ± 3 °C), humidity (40–70%), and 12 h light/dark cycle conditions. All animal protocols were approved by the University of Manchester review committee and adhered to the UK Home Office Animals (Scientific Procedures) Act (1986). Rats (250–300 g) were sacrificed using CO2 overdose followed by cervical dislocation in the morning of the study day. The kinetics experiment, as described below, was performed using n = 4 animals. A minimum of n = 3 was required to explore interanimal variability in kinetic parameters, with surplus hepatocytes also used from an additional animal that was part of a separate project. Primary rat hepatocytes, prepared as described below, were used to evaluate test compound cytotoxicity/effect on hepatocyte attachment (n = 3), preliminary assays to determine uptake assay conditions (n = 4), and for assays that were failed, for example, poor cell viability (n = 6 animals).
Isolation of hepatocytes using ex vivo collagenase perfusion was performed, followed by cell count and viability assessment, as previously described.[34]−[36] Cell preparations with viability <85% were not used for experiments. Hepatocytes were seeded at 240,000 cells per well in collagen I-coated 24-well plates, and incubated for at least 2 h at 37 °C and 95% air/5% CO2 to allow cell attachment to the plate.[36]
Uptake experiments were performed at 37 °C with duplicate incubations per condition, as previously described.[35] Uptake of gadoxetate (Primovist injection solution, Bayer, Germany) was evaluated following incubation (0.5–150 min) at nominal media concentrations of 0.01–10 mM. Extended incubation timepoints (up to 150 min) were selected based on previous publications[35] and existing in-house data to enable characterization of the steady-state intracellular concentration. Uptake of pitavastatin (Sequoia Research Products Ltd, Pangbourne, UK) (0.2 μM) in the absence and presence of a pan-inhibitor of uptake transporters, rifamycin SV (Sigma-Aldrich, Poole, UK) (100 μM), was also evaluated for 0.5–2 min as positive control for functional transporter activity. Following sample preparation including addition of internal standard (Table S1), gadoxetate and pitavastatin in cell samples, and gadoxetate in media samples, were quantified by liquid chromatography–tandem mass spectrometry (LC–MS/MS). LC–MS/MS quantification was performed using selective reaction monitoring (SRM) against calibration standards; only standards within 30% of nominal concentration were included. The protein content of plated rat hepatocytes was measured using the Pierce BCA Protein Assay Kit (Thermo Fisher Scientific, Paisley, UK).
In vitro hepatocyte uptake (i.e., the amount of gadoxetate in cell as quantified by LC–MS/MS) (pmol) at each time point was normalized for cellularity using the measured protein content and assuming that 10^6 hepatocytes contain 1 mg protein.[34] For gadoxetate, the data from each animal were used for simultaneous estimation of in vitro kinetic parameters using a mechanistic hepatocyte model reported previously.[35] It should be noted that CLpassive,u implies nonsaturable clearance equal in both directions under experimental conditions (0.01–10 mM). [drawing 1] 1 where Km,u represents the unbound Michaelis constant (μM); Vmax the maximum transport rate (pmol/min/10^6 cells); and fu,cell the fraction unbound in cell and nonsaturable, bidirectional clearance (CLpassive,u; μL/min/10^6 cells). ccell and cmedium represent concentrations in cell and medium compartments, respectively, and Vcell represents the cell volume.
Intracellular concentrations were calculated assuming a hepatocyte cell volume of 3.9 μL/10^6 cells.[35] […]

CCOc1ccc(C[C@@H](CN(CCN(CC(=O)[O-])CC(=O)[O-])CC(=O)[O-])N(CC(=O)[O-])CC(=O)[O-])cc1.[Gd+3].[H+].[H+] [gadoxetate]
maximum % active (CLactive,u/(CLactive,u + CLpassive,u), animal 1): 97% | maximum % active (CLactive,u/(CLactive,u + CLpassive,u), animal 2): 94% | maximum % active (CLactive,u/(CLactive,u + CLpassive,u), animal 3): 91% | maximum % active (CLactive,u/(CLactive,u + CLpassive,u), animal 4): 94% | % passive (animal 1): 3% | % passive (animal 2): 6% | % passive (animal 3): 9% | % passive (animal 4): 6% | % passive (average of n = 4 animals): 6% | CLactive,u (animal 1): 3.07 μL/min/10^6 cells | CLactive,u (animal 2): 3.20 μL/min/10^6 cells | CLactive,u (animal 3): 2.78 μL/min/10^6 cells | CLactive,u (animal 4): 3.20 μL/min/10^6 cells | CLactive,u (average of n = 4 animals): 3.06 μL/min/10^6 cells | CLpassive,u (animal 1): 0.091 μL/min/10^6 cells | Vmax (animal 1): 350.4 pmol/min/10^6 cells | Km (animal 1): 114 µM | CLpassive,u (animal 2): 0.202 μL/min/10^6 cells | Vmax (animal 2): 370.9 pmol/min/10^6 cells | Km (animal 2): 116 µM | CLpassive,u (animal 3): 0.274 μL/min/10^6 cells | Vmax (animal 3): 221.7 pmol/min/10^6 cells | Km (animal 3): 79.8 µM | CLpassive,u (animal 4): 0.203 μL/min/10^6 cells | Vmax (animal 4): 368.8 pmol/min/10^6 cells | Km (animal 4): 115 µM | CLpassive,u (average of n = 4 animals): 0.193 μL/min/10^6 cells | Vmax (average of n = 4 animals): 327.95 pmol/min/10^6 cells | Km (average of n = 4 animals (CV %)): 106 µM | maximum % active (contribution of active saturable uptake to total uptake, average of n = 4 animals): 94% | fu,liv,cell (fraction unbound in cell (fu,cell), average of n = 4 animals (CV %)): 0.648 | fu,liv,cell (fraction unbound in cell (fu,cell), average of n = 4 animals (CV %), listed as Gadoxetate): 0.65 (24%) | fu,liv,cell (fraction unbound in cell, animal 1): 0.759 | fu,liv,cell (fraction unbound in cell, animal 2): 0.709 | fu,liv,cell (fraction unbound in cell, animal 3): 0.418 | fu,liv,cell (fraction unbound in cell, animal 4): 0.704
